# In paper PMC9293909 (Nature Communications, 2022):
# Where “and” joins values, the source holds several entries; their conditions need not be identical. Identical values can stand only once.
# Assays:
# [1] = test system: native presynaptic A1Rs, rat hippocampal slices; assay: Extracellular fEPSP recording, inhibition of excitatory synaptic transmission in hippocampal slices; format: cell-based
# Experimental: (§1) Rats were kept on a 12-hour light-dark cycle with slices made 90 min after entering the light cycle. […] The brain was removed, cut down the midline and the two sides of the brain stuck down to a metal base plate using cyanoacrylate glue. […] Slices were stored at 34 °C for 1–6 h in aCSF (1 mM MgCl2, 2 mM CaCl2) before use.
# A slice was transferred to the recording chamber, submerged in aCSF and perfused at 4–6 ml min^−1 (32 ± 0.5 °C). The slice was placed on a grid allowing perfusion above and below the tissue and all tubing was gastight (to prevent loss of oxygen). […] Field excitatory postsynaptic potentials (fEPSPs) were evoked with either an isolated pulse stimulator model 2100 (AM Systems, WA) or ISO-Flex (AMPI, Jerusalem, Israel). For fEPSPs a 10–20 min baseline was recorded at a stimulus intensity that gave 40-50% of the maximal response. […] For fEPSP slope, a 1 ms linear region after the fibre volley was measured. Extracellular recordings were made independently on two electrophysiology rigs.
# Statistical significance was tested as indicated in the text using paired or unpaired two-tailed t-tests or one-way or two-way ANOVAs with repeated measures (RM) as appropriate. Bonferroni corrections for multiple comparisons were performed. All in vitro cell signalling assay data was analysed using Prism 8.4 (Graphpad software, San Diego, CA), with all concentration-response curves being fitted using a 3 parameter logistic equation to calculate response range and IC50. All cAMP data was normalised to a forskolin concentration-response curve ran in parallel to each assay.
# [2] = Half-life determination in human plasma; details: UoBern01 at 1.00E-06 M
# Experimental: (§3) At the end of incubation at each of the time points (0, 0.5, 1, 1.5, 2 h), acetonitrile was added to the incubation mixture followed by centrifugation. Samples were analysed by HPLC-MS/MS and peak areas were recorded for each analyte. The area of precursor compound remaining after each of the time points relative to the amount remaining at time 0, expressed as a percentage, was calculated. Subsequently, the t1/2 is estimated from the slope of the initial linear range of the logarithmic curve of compound remaining (%) versus time, assuming first-order kinetics.
# [3] = in vitro; details: human, plasma
# Experimental: as §3
# [4] = Half-life determination in PBS; format: physicochemical; details: PBS, pH 7.4
# Experimental: […] Samples were analysed by HPLC-MS/MS and corresponding peak areas were recorded for each analyte. The ratio of precursor compound remaining after each time-point relative to the amount present at time 0, expressed as a percentage, is reported as chemical stability.
# [5] = Intrinsic clearance by human liver microsomes; details: UoBern01 at 1.00E-07 M
# [6] = test system: postsynaptic A1Rs, CA1 pyramidal cells; assay: Whole-cell patch-clamp, membrane potential of CA1 pyramidal cells; format: cell-based, rat
# Experimental: as §1
# (§2) A slice was transferred to the recording chamber and perfused at 3 ml min^−1 with aCSF at 32 ± 0.5 °C. Slices were visualised using IR-DIC optics with an Olympus BX151W microscope (Scientifica) and a CCD camera (Hitachi). […] Voltage and current recordings were obtained using an Axon Multiclamp 700B amplifier (Molecular Devices, USA) and digitised at 20 KHz. Data acquisition and analysis was performed using pClamp 10 (Molecular Devices, USA). For voltage-clamp experiments, CA1 pyramidal cells were held at −60 mV. Peptides to interfere with G protein signalling were introduced via the patch pipette into the recorded cell.
# [7] = test system: CA1 pyramidal cells (Goa / Gob signalling); assay: Whole-cell voltage-clamp, adenosine-induced outward current with intracellular G protein interfering peptides; format: cell-based, rat; details: adenosine 10 µM, peptide 100 µM, held at −60 mV
# Experimental: as §2
# Drugs were made up as stock solutions (1-10 mM) and then diluted in aCSF or saline on the day of use. […] MRS1523 was purchased from Cayman Chemicals (Cambridge Bioscience Ltd., Cambridge UK). […] CA200645 and peptides for interfering with G protein signalling were obtained from Hello Bio (Bristol, UK) and were based on published sequences. […] The scrambled version was […]. […] Peptides were made up as stock solutions (2 mM) and stored at −20 °C. The stock solutions were dissolved in filtered intracellular solution just before use.
# [8] = incubation 0 minutes, UoBern01 at 1.00E-06 M
# [9] = incubation 60 minutes, UoBern01 at 1.00E-06 M
# [10] = incubation 120 minutes, UoBern01 at 1.00E-06 M
# [11] = incubation 180 minutes, 1.00E-06 M
# [12] = incubation 240 minutes, 1.00E-06 M
molecule,measurement,setting,value
"CCNC(=O)[C@H]1O[C@@H](n2cnc3c(N)ncnc32)[C@H](O)[C@@H]1O [NECA, 5′-(N-Ethylcarboxamido) adenosine]",IC50,"[1]; fEPSP, rat hippocampal slices, read-out: IC50 inhibition of synaptic transmission",8.3 ± 3 nM
"OC[C@H]1O[C@@H](n2cnc3c(N[C@@H]4CCC[C@H]4OCc4ccccc4)ncnc32)[C@H](O)[C@@H]1O [BnOCPA, (2 R,3 R,4 S,5 R)−2-(6-{[(1 R,2 R)−2-benzyloxycyclopentyl]amino}−9H-purin-9-yl)−5-(hydroxymethyl)oxolane-3,4-diol]",time constant of inhibition of synaptic transmission (single exponential),[1]; 300 nM,2.2 min
CCCOc1cc(N)ccc1C(=O)OCCN(CC)CC [Propoxycaine],2nd / Half-Life,[2],3.4 min
same,Mean / Half-Life,[2],4 min
same,1st / % Compound Remaining,[2]; incubation 0 minutes,100%
same,2nd / % Compound Remaining,[2]; incubation 0 minutes,100%
same,Mean / % Compound Remaining,[2]; incubation 0 minutes,100%
same,1st / % Compound Remaining,[2]; incubation 30 minutes,0.4%
same,2nd / % Compound Remaining,[2]; incubation 30 minutes,0.2%
same,Mean / % Compound Remaining,[2]; incubation 30 minutes,0.3%
same,1st / % Compound Remaining,[2]; incubation 60 minutes,0.3%
same,2nd / % Compound Remaining,[2]; incubation 60 minutes,0.2%
same,Mean / % Compound Remaining,[2]; incubation 60 minutes,0.3%
same,1st / % Compound Remaining,[2]; incubation 90 minutes,0.3%
same,2nd / % Compound Remaining,[2]; incubation 90 minutes,0.5%
same,Mean / % Compound Remaining,[2]; incubation 90 minutes,0.4%
same,1st / % Compound Remaining,[2]; incubation 120 minutes,0.1%
same,2nd / % Compound Remaining,[2]; incubation 120 minutes,0.3%
same,Mean / % Compound Remaining,[2]; incubation 120 minutes,0.2%
same,half-life,[3],3.8 min
OC[C@H]1O[C@@H](n2cnc3c(N[C@@H]4CCC[C@H]4OCc4ccccc4)ncnc32)[C@H](O)[C@@H]1O [UoBern01],2nd / Half-Life,[4]; UoBern01 at 1.00E-06 M,>240 min
same,Mean / Half-Life,[4]; UoBern01 at 1.00E-06 M,>240 min
same,1st / % Compound Remaining,[4]; [8],100%
same,2nd / % Compound Remaining,[4]; [8],100%
same,Mean / % Compound Remaining,[4]; [8],100%
same,1st / % Compound Remaining,[4]; [9],100%
same,2nd / % Compound Remaining,[4]; [9],{204.3} %
same,Mean / % Compound Remaining,[4]; [9],100%
same,1st / % Compound Remaining,[4]; [10],99.8%
same,2nd / % Compound Remaining,[4]; [10],105.3%
same,Mean / % Compound Remaining,[4]; [10],102.5%
same,1st / % Compound Remaining,[4]; [11],96.7%
same,2nd / % Compound Remaining,[4]; [11],{108.7} %
same,Mean / % Compound Remaining,[4]; [11],96.7%
same,1st / % Compound Remaining,[4]; [12],89.5%
same,2nd / % Compound Remaining,[4]; [12],100.9%
same,Mean / % Compound Remaining,[4]; [12],95.2%
same,Clint,[5],<115.5
same,Mean / Half-Life,[5],>60 min
same,1st / % Compound Remaining,[5]; incubation 0 minutes,100%
same,2nd / % Compound Remaining,[5]; incubation 0 minutes,100%
same,Mean / % Compound Remaining,[5]; incubation 0 minutes,100%
same,1st / % Compound Remaining,[5]; incubation 15 minutes,108.5%
same,2nd / % Compound Remaining,[5]; incubation 15 minutes,101.9%
same,Mean / % Compound Remaining,[5]; incubation 15 minutes,105.2%
same,1st / % Compound Remaining,[5]; incubation 30 minutes,92.9%
same,2nd / % Compound Remaining,[5]; incubation 30 minutes,86%
same,Mean / % Compound Remaining,[5]; incubation 30 minutes,89.4%
same,1st / % Compound Remaining,[5]; incubation 45 minutes,92%
same,2nd / % Compound Remaining,[5]; incubation 45 minutes,89.5%
same,Mean / % Compound Remaining,[5]; incubation 45 minutes,90.7%
same,1st / % Compound Remaining,[5]; incubation 60 minutes,84.1%
same,2nd / % Compound Remaining,[5]; incubation 60 minutes,69.7%
same,Mean / % Compound Remaining,[5]; incubation 60 minutes,76.9%
same,1st / Half-Life,[2],>120 min
same,2nd / Half-Life,[2],>120 min
same,Mean / Half-Life,[2],>120 min
same,1st / % Compound Remaining,[2]; incubation 0 minutes,100%
same,2nd / % Compound Remaining,[2]; incubation 0 minutes,100%
same,Mean / % Compound Remaining,[2]; incubation 0 minutes,100%
same,1st / % Compound Remaining,[2]; incubation 30 minutes,104.2%
same,2nd / % Compound Remaining,[2]; incubation 30 minutes,{224.0} %
same,Mean / % Compound Remaining,[2]; incubation 30 minutes,104.2%
same,1st / % Compound Remaining,[2]; incubation 60 minutes,124.2%
same,2nd / % Compound Remaining,[2]; incubation 60 minutes,99%
same,Mean / % Compound Remaining,[2]; incubation 60 minutes,111.6%
same,1st / % Compound Remaining,[2]; incubation 90 minutes,133.3%
same,2nd / % Compound Remaining,[2]; incubation 90 minutes,101.7%
same,Mean / % Compound Remaining,[2]; incubation 90 minutes,117.5%
same,1st / % Compound Remaining,[2]; incubation 120 minutes,{142.4} %
same,2nd / % Compound Remaining,[2]; incubation 120 minutes,108.4%
same,Mean / % Compound Remaining,[2]; incubation 120 minutes,108.4%
NCC(CC(=O)O)c1ccc(Cl)cc1 (centres unmarked) [baclofen],membrane hyperpolarisation,[6]; baclofen 10 µM in the presence of BnOCPA 300 nM,6.5 ± 0.43 mV
same,membrane hyperpolarisation,[6]; baclofen in control conditions,6.3 ± 0.76 mV
CNC(=O)[C@H]1O[C@@H](n2cnc3c(NCc4cccc(I)c4)nc(Cl)nc32)[C@H](O)[C@@H]1O [2-Cl-IB-MECA],effect on membrane potential,[6]; 1 µM,had no effect on membrane potential
CC(C)[N+](C)(CCOC(=O)C1c2ccccc2Oc2ccccc21)C(C)C [Propantheline],Mean / Half-Life,[4]; UoBern01 at 1.00E-06 M,>120 min
same,1st / % Compound Remaining,[4]; [8],100%
same,2nd / % Compound Remaining,[4]; [8],100%
same,Mean / % Compound Remaining,[4]; [8],100%
same,1st / % Compound Remaining,[4]; incubation 30 minutes,95.1%
same,2nd / % Compound Remaining,[4]; incubation 30 minutes,97.9%
same,Mean / % Compound Remaining,[4]; incubation 30 minutes,96.5%
same,1st / % Compound Remaining,[4]; [9],{129.3} %
same,2nd / % Compound Remaining,[4]; [9],96.1%
same,Mean / % Compound Remaining,[4]; [9],96.1%
same,1st / % Compound Remaining,[4]; incubation 90 minutes,86.5%
same,2nd / % Compound Remaining,[4]; incubation 90 minutes,89.2%
same,Mean / % Compound Remaining,[4]; incubation 90 minutes,87.8%
same,1st / % Compound Remaining,[4]; [10],{72.3} %
same,2nd / % Compound Remaining,[4]; [10],76.6%
same,Mean / % Compound Remaining,[4]; [10],76.6%
same,half-life,[4]; read-out: 1st / Half-Life,> 120 min
same,2nd / Half-Life,[2],50.4 min
same,Mean / Half-Life,[2],49 min
same,1st / % Compound Remaining,[2]; incubation 0 minutes,100%
same,2nd / % Compound Remaining,[2]; incubation 0 minutes,100%
same,Mean / % Compound Remaining,[2]; incubation 0 minutes,100%
same,1st / % Compound Remaining,[2]; incubation 30 minutes,69.6%
same,2nd / % Compound Remaining,[2]; incubation 30 minutes,53.9%
same,Mean / % Compound Remaining,[2]; incubation 30 minutes,61.7%
same,1st / % Compound Remaining,[2]; incubation 60 minutes,44.8%
same,2nd / % Compound Remaining,[2]; incubation 60 minutes,36.9%
same,Mean / % Compound Remaining,[2]; incubation 60 minutes,40.9%
same,1st / % Compound Remaining,[2]; incubation 90 minutes,29.3%
same,2nd / % Compound Remaining,[2]; incubation 90 minutes,22.6%
same,Mean / % Compound Remaining,[2]; incubation 90 minutes,26%
same,1st / % Compound Remaining,[2]; incubation 120 minutes,16.8%
same,2nd / % Compound Remaining,[2]; incubation 120 minutes,19.6%
same,Mean / % Compound Remaining,[2]; incubation 120 minutes,18.2%
same,half-life,[3],46.9 min
"LNRGNAYLCIGMG [Goa SCR, scrambled version of the Goa interfering peptide]",adenosine-induced outward current with intracellular peptide,[7],45.8 pA and 40.3 pA and 52.5 pA and 32 pA and 47 pA and 43.9 pA and 42 pA
same,adenosine-induced outward current with intracellular peptide,[7]; listed as scrambled Goa peptide,43.4 ± 2.4 pA
same,adenosine-induced outward current with intracellular peptide,[7]; mean,43.36 pA
